pIC50: −log10 of the molar value.
Assay: Anticancer human tumor 997537-175-T-J1-PDC patient-derived colon adenocarcinoma cell line growth inhibition [POLQ]
Conditions: 997537-175-T-J1-PDC complex spheroid viability, combination with POLQ inhibitors; for pIC50: curve of first compound; for viability, T/C: stronger effect = lower value
Outline: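 Growth inhibition in 3D: complex spheroids (tumor PDC, HUVEC, MSC) treated with POLQ inhibitor combinations; where Cmax unknown, highest tested concentration 10 microM, except SN-38 at 1 microM.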

[1] = second compound 0.0316 µM, first compound 0.0316 µM
[2] = second compound 0.0316 µM, first compound 0.1 µM
[3] = second compound 0.0316 µM, first compound 0.316 µM
[4] = second compound 0.0316 µM, first compound 1 µM
[5] = second compound 0.1 µM, first compound 0.0316 µM
[6] = second compound 0.1 µM, first compound 0.1 µM
[7] = second compound 0.1 µM, first compound 0.316 µM
[8] = second compound 0.1 µM, first compound 1 µM
[9] = second compound 0.316 µM, first compound 0.0316 µM
[10] = second compound 0.316 µM, first compound 0.1 µM
[11] = second compound 0.316 µM, first compound 0.316 µM
[12] = second compound 0.316 µM, first compound 1 µM
[13] = second compound 1 µM, first compound 0.0316 µM
[14] = second compound 1 µM, first compound 0.1 µM
[15] = second compound 1 µM, first compound 0.316 µM
[16] = second compound 1 µM, first compound 1 µM
[17] = second compound 3.16 µM, first compound 0.0316 µM
[18] = second compound 3.16 µM, first compound 0.1 µM
[19] = second compound 3.16 µM, first compound 0.316 µM
[20] = second compound 3.16 µM, first compound 1 µM
[21] = second compound 10 µM, first compound 0.0316 µM
[22] = second compound 10 µM, first compound 0.1 µM
[23] = second compound 10 µM, first compound 0.316 µM
[24] = second compound 10 µM, first compound 1 µM
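Also: luminescence signal used as a surrogate for viable cells; spheroids exposed to drugs for seven days before readout.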

For C=CCn1c(=O)c2cnc(Nc3ccc(N4CCN(C)CC4)cc3)nc2n1-c1cccc(C(C)(C)O)n1 + Nc1ccc(C#CCN(C(=O)Cc2ncc(C(F)(F)F)cc2C(F)(F)F)c2ccc(F)cc2)nn1, the pIC50 (second compound 0.0316 µM) was less than 6.00, the pIC50 (second compound 0.1 µM) was less than 6.00 and the pIC50 (second compound 0.316 µM) was less than 6.00. For the same compound, the pIC50 (second compound 1 µM) was less than 6.00, the pIC50 (second compound 3.16 µM) was less than 6.00 and the pIC50 (second compound 10 µM) was less than 6.00. For the same compound, the viability, T/C (second compound 0.0316 µM, first compound 0.00316 µM) was 92.5%, the viability, T/C (second compound 0.0316 µM, first compound 0.01 µM) was 99.7% and the viability, T/C [1] was 89.3%. The viability, T/C [2] was 97.9%, the viability, T/C [3] was 89.8% and the viability, T/C [4] was 50.6%. For the same compound, the viability, T/C (second compound 0.1 µM, first compound 0.00316 µM) was 95.9%, the viability, T/C (second compound 0.1 µM, first compound 0.01 µM) was 96.8% and the viability, T/C [5] was 94.4%. It also gave a viability, T/C [6] of 95.1%, a viability, T/C [7] of 98.4% and a viability, T/C [8] of 73%. For the same compound, the viability, T/C (second compound 0.316 µM, first compound 0.00316 µM) was 92.6%, the viability, T/C (second compound 0.316 µM, first compound 0.01 µM) was 97.3% and the viability, T/C [9] was 90.8%. For the same compound, the viability, T/C [10] was 82%, the viability, T/C [11] was 76.3% and the viability, T/C [12] was 55.1%. It also gave a viability, T/C (second compound 1 µM, first compound 0.00316 µM) of 88.3%, a viability, T/C (second compound 1 µM, first compound 0.01 µM) of 104% and a viability, T/C [13] of 94.4%. For the same compound, the viability, T/C [14] was 84.5%, the viability, T/C [15] was 92.9% and the viability, T/C [16] was 62.2%. It also gave a viability, T/C (second compound 3.16 µM, first compound 0.00316 µM) of 81.3%, a viability, T/C (second compound 3.16 µM, first compound 0.01 µM) of 93.7% and a viability, T/C [17] of 94.8%. The viability, T/C [18] was 94.3%, the viability, T/C [19] was 106% and the viability, T/C [20] was 55.1%. The viability, T/C (second compound 10 µM, first compound 0.00316 µM) was 96.5%, the viability, T/C (second compound 10 µM, first compound 0.01 µM) was 85.5% and the viability, T/C [21] was 87.6%. For the same compound, the viability, T/C [22] was 80.9%, the viability, T/C [23] was 97.4% and the viability, T/C [24] was 72.9%.

CNCc1ccc(-c2[nH]c3cc(F)cc4c3c2CCNC4=O)cc1 + Nc1ccc(C#CCN(C(=O)Cc2ncc(C(F)(F)F)cc2C(F)(F)F)c2ccc(F)cc2)nn1 showed a pIC50 (second compound 0.0316 µM) of less than 5.00, a pIC50 (second compound 0.1 µM) of less than 5.00 and a pIC50 (second compound 0.316 µM) of less than 5.00. It also gave a pIC50 (second compound 1 µM) of less than 5.00, a pIC50 (second compound 3.16 µM) of less than 5.00 and a pIC50 (second compound 10 µM) of less than 5.00. For the same compound, the viability, T/C [1] was 106%, the viability, T/C [2] was 102% and the viability, T/C [3] was 100%. The viability, T/C [4] was 97.1%, the viability, T/C (second compound 0.0316 µM, first compound 3.16 µM) was 103% and the viability, T/C (second compound 0.0316 µM, first compound 10 µM) was 104%. It also gave a viability, T/C [5] of 98.6%, a viability, T/C [6] of 102% and a viability, T/C [7] of 93.2%. For the same compound, the viability, T/C [8] was 95.5%, the viability, T/C (second compound 0.1 µM, first compound 3.16 µM) was 99.2% and the viability, T/C (second compound 0.1 µM, first compound 10 µM) was 101%. It also gave a viability, T/C [9] of 87.3%, a viability, T/C [10] of 108% and a viability, T/C [11] of 106%. For the same compound, the viability, T/C [12] was 90.8%, the viability, T/C (second compound 0.316 µM, first compound 3.16 µM) was 97.7% and the viability, T/C (second compound 0.316 µM, first compound 10 µM) was 99.7%. For the same compound, the viability, T/C [13] was 90%, the viability, T/C [14] was 108% and the viability, T/C [15] was 102%. It also gave a viability, T/C [16] of 94.6%, a viability, T/C (second compound 1 µM, first compound 3.16 µM) of 110% and a viability, T/C (second compound 1 µM, first compound 10 µM) of 89.8%. It also gave a viability, T/C [17] of 93.1%, a viability, T/C [18] of 95.6% and a viability, T/C [19] of 85.1%. It also gave a viability, T/C [20] of 99.1%, a viability, T/C (second compound 3.16 µM, first compound 3.16 µM) of 96.2% and a viability, T/C (second compound 3.16 µM, first compound 10 µM) of 111%. For the same compound, the viability, T/C [21] was 87.4%, the viability, T/C [22] was 104% and the viability, T/C [23] was 101%. It also gave a viability, T/C [24] of 96.8%, a viability, T/C (second compound 10 µM, first compound 3.16 µM) of 110% and a viability, T/C (second compound 10 µM, first compound 10 µM) of 114%.

From PubChem BioAssay AID1963825 (Molecular Pharmacology Branch, DTP, NCI, 2024)
